Source: US11096985B2, “Antimicrobial peptides, their variants and uses” (priority 2015, dated 2021)
Where a SMILES comes first, the peptide text is derived from it. [ ]: non-standard residue; d: D form.

Legend:
[1] = test system: clinical strains of Klebsiella pneumoniae; experiment: MIC, clinical strains of K. pneumoniae; assay type: cell-based; set-up: unit: μg/ml; conditions: microdilution, Muller Hinton broth-cation adjusted, 0.02% BSA, 0.2% acetic acid
Description: (§1) Minimum inhibition concentrations (MICs) were determined against Escherichia coli (ATCC 25922), Staphylococcus aureus (ATCC 25923), Klebsiella pneumoniae (ATCC 10031) and Pseudomonas aeruginosa (ATCC 27853). Also clinical strains of E. coli, K. pneumoniae, E. cloacae, P. aeruginosa, Serratia marcescens, Proteus mirabilis, S. pneumoniae, Acinetobacter baumannii, A. johnsonii and S. aureus were used for MICs assays. Additionally, clinical strains of yeast including Candida albicans, C. glabrata, C. parapsilosis and C. quillermondiae were used. The susceptibility of these microorganisms to Chain peptides were determined using micro broth dilution assay. Colonies of the respective microorganism from Muller Hinton (MH) agar plates incubated overnight were suspended in MH broth media and final concentration of microorganism was adjusted to 5.0×10^5 cfu/ml. An aliquot of 10 μl of each Chain peptide, or gentamicin, tetracycline as reference antibiotics were added in differing concentrations along with 90 μl of bacterial suspension to 96 well polypropylene plates and incubated at 37° C. for 20 to 24 hours. Concentrations of Chain peptides and reference antibiotics ranged from 0.125 to 128 μg/ml and the MICs were recorded as the lowest concentration with no visual growth of bacteria. Similarly, antifungal MICs were tested in Potato dextrose broth.
(§2) Clinical strains of yeasts including Candida albicans, C. glabrata, C. parapsilosis and C. quillermondiae were also tested with the 12 Chain peptides. The minimum inhibitory concentration (MICs) varied between these peptides and are presented in Tables 4a, 4b, 4c and 5a, 5b, 5c. Peptides Chain 105, 201 and 308 are broad spectrum antimicrobials with MICs between 0.5-32 μg/ml against all the bacteria and yeasts tested, except Serratia marcescens and Proteus mirabilis, against which the MICs were between 64-128 μg/ml. Peptide Chain 306 has narrow spectrum activity against E.coli at 1 μg/ml and for the rest of the bacterial strains at >32 μg/ml (FIG. 10).

[2] = test system: clinical strains of Candida albicans; experiment: MIC, clinical yeast strains, Candida albicans; assay type: cell-based; set-up: unit: μg/ml
Outline: (§3)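 By broth microdilution, Chain peptides from 0.125 to 128 μg/ml were tested against clinical strains adjusted to 5.0×10^5 cfu/ml, with bacteria in MH broth and yeasts in Potato dextrose broth. After 20–24 h at 37 °C, the lowest peptide concentration without visible growth was scored as MIC.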

[3] = test system: clinical strains of C. glabrata; experiment: MIC, clinical yeast strains, C. glabrata; assay type: cell-based, Candida glabrata; set-up: unit: μg/ml
Outline: as §3

[4] = test system: clinical strains of Pseudomonas aeruginosa; experiment: MIC, clinical strains of P. aeruginosa; assay type: cell-based; set-up: unit: μg/ml; conditions: microdilution, Muller Hinton broth-cation adjusted, 0.02% BSA, 0.2% acetic acid
Description: as §1, §2

[5] = test system: clinical strains of Enterobacter cloacae; experiment: MIC, clinical strains of Enterobacter cloacae; assay type: cell-based; set-up: unit: μg/ml; conditions: microdilution, Muller Hinton broth-cation adjusted, 0.02% BSA, 0.2% acetic acid
Description: as §1, §2

[6] = test system: clinical strains of Serratia marcescens; experiment: MIC, clinical strains of Serratia marcescens; assay type: cell-based; set-up: unit: µg/mL; conditions: microdilution, Muller Hinton broth-cation adjusted, 0.02% BSA, 0.2% acetic acid
Description: as §1, §2

[7] = test system: clinical strains of Proteus mirabilis; experiment: MIC, clinical strains of Proteus mirabilis; assay type: cell-based; set-up: unit: µg/mL; conditions: microdilution, Muller Hinton broth-cation adjusted, 0.02% BSA, 0.2% acetic acid
Description: as §1, §2

[8] = test system: clinical strains of Escherichia coli; experiment: MIC, clinical strains of E. coli; assay type: cell-based; set-up: unit: μg/ml; conditions: microdilution, Muller Hinton broth-cation adjusted, 0.02% BSA, 0.2% acetic acid
Description: as §1, §2

[9] = test system: clinical strains of C. quillermondiae; experiment: MIC, clinical yeast strains, C. quillermondiae; assay type: cell-based; conditions: C. quillermondiae clinical yeast strain 1
Outline: as §3

[10] = test system: clinical strains of C. parapsilosis; experiment: MIC, clinical yeast strains, C. parapsilosis; assay type: cell-based, Candida parapsilosis; set-up: unit: μg/ml
Outline: as §3

[11] = test system: clinical strains of Staphylococcus aureus; experiment: MIC, clinical strains of S. aureus; assay type: cell-based; set-up: unit: μg/ml; conditions: microdilution, Muller Hinton broth-cation adjusted, 0.02% BSA, 0.2% acetic acid
Description: as §1, §2

[12] = test system: clinical strains of Streptococcus pneumoniae; experiment: MIC, clinical strains of Streptococcus pneumoniae; assay type: cell-based; set-up: unit: µg/mL; conditions: microdilution, Muller Hinton broth-cation adjusted, 0.02% BSA, 0.2% acetic acid
Description: as §1, §2

Measured: Minimum inhibitory concentration

CC(C)C[C@@H](NC(=O)[C@@H](Cc1c[nH]c2ccccc12)NC(=O)[C@@H](Cc1ccccc1)NC(=O)[C@@H](Cc1c[nH]c2ccccc12)NC(=O)[C@@H](CCCCN)NC(=O)[C@@H](CCCNC(=N)N)NC(=O)[C@H](N)Cc1c[nH]c2ccccc12)C(=O)N[C@H](Cc1ccccc1)C(=O)N[C@H](CCCCN)C(=O)N[C@H](CCCCN)C(=O)N[C@H](CCCNC(=N)N)C(=O)O [Chain309D] (H-[dW][dR][dK][dW][dF][dW][dL][dF][dK][dK][dR]-OH)
128: [1]; Klebsiella pneumoniae clinical strain 1 | [1]; Klebsiella pneumoniae clinical strain 5 | [3]; C. glabrata clinical yeast strain 4 | [5]; Enterobacter cloacae clinical strain 2
32: [1]; Klebsiella pneumoniae clinical strain 2 | [1]; Klebsiella pneumoniae clinical strain 4 | [2]; Candida albicans clinical yeast strain 1 | [2]; Candida albicans clinical yeast strain 2 | [2]; Candida albicans clinical yeast strain 5 | [3]; C. glabrata clinical yeast strain 1 | [4]; Pseudomonas aeruginosa clinical strain 2 | [4]; Pseudomonas aeruginosa clinical strain 4 | [5]; Enterobacter cloacae clinical strain 5 | [8]; Escherichia coli clinical strain 2 | [8]; Escherichia coli clinical strain 4 | [10]; C. parapsilosis clinical yeast strain 3
8: [4]; Pseudomonas aeruginosa clinical strain 5 | [9] | [11]; Staphylococcus aureus clinical strain 1 | [11]; Staphylococcus aureus clinical strain 3 | [11]; Staphylococcus aureus clinical strain 4 | [11]; Staphylococcus aureus clinical strain 5
64: [3]; C. glabrata clinical yeast strain 2 | [5]; Enterobacter cloacae clinical strain 3 | [5]; Enterobacter cloacae clinical strain 4 | [10]; C. parapsilosis clinical yeast strain 1 | [10]; C. parapsilosis clinical yeast strain 2 | [12]; Streptococcus pneumoniae clinical strain 1 | [12]; Streptococcus pneumoniae clinical strain 2 | [12]; Streptococcus pneumoniae clinical strain 3 | [12]; Streptococcus pneumoniae clinical strain 4 | [12]; Streptococcus pneumoniae clinical strain 5
>128: [1]; Klebsiella pneumoniae clinical strain 3 | [5]; Enterobacter cloacae clinical strain 1 | [6]; Serratia marcescens clinical strain 1 | [6]; Serratia marcescens clinical strain 2 | [6]; Serratia marcescens clinical strain 3 | [6]; Serratia marcescens clinical strain 4 | [6]; Serratia marcescens clinical strain 5 | [7]; Proteus mirabilis clinical strain 1 | [7]; Proteus mirabilis clinical strain 2 | [7]; Proteus mirabilis clinical strain 3 | [7]; Proteus mirabilis clinical strain 4 | [7]; Proteus mirabilis clinical strain 5
4: [3]; C. glabrata clinical yeast strain 3
16: [2]; Candida albicans clinical yeast strain 3 | [2]; Candida albicans clinical yeast strain 4 | [4]; Pseudomonas aeruginosa clinical strain 1 | [4]; Pseudomonas aeruginosa clinical strain 3 | [8]; Escherichia coli clinical strain 3 | [8]; Escherichia coli clinical strain 5 | [10]; C. parapsilosis clinical yeast strain 4 | [11]; Staphylococcus aureus clinical strain 2
0.5: [8]; Escherichia coli clinical strain 1
